The source of these data is patent publication US6362166B1, “Antipicornaviral compounds and methods for their use and preparation” (Agouron Pharmaceuticals, Inc., priority 1996, dated 2002).

Data set [1] deals with T1, Recombinant Rhinovirus 3C protease (RVP) serotype 89 (Human rhinovirus A serotype 89, UniProt P07210).
T1 construct: Recombinant Rhinovirus 3C proteases from serotypes 14, 16, 2 or 89; made in house
In words: Inhibition of Rhinovirus Protease (fluorescence resonance energy transfer assay), serotype 89. The data set is classed as biochemical, human rhinovirus (HRV). As to the method: Stock solution (50 mM, in DMSO) of various compounds were prepared; dilutions were in the same solvent. Recombinant Rhinovirus 3C proteases from serotypes 14, 16, 2 or 89 were prepared by the following standard chromatographic procedures: (1) ion exchange using Q Sepharose Fast Flow from Pharmacia; (2) affinity chromatography using Affi-Gel Blue from Biorad; and (3) sizing using Sephadex G-100 from Pharmacia. Assays contained 2% DMSO, 50 mM tris pH 7.6, 1 mM EDTA, a compound at the indicated concentrations, approximately 1 μM substrate, and 50-100 nM protease. […] The kobs/I values were obtained from reactions initiated by addition of enzyme rather than substrate. RVP activity is measured in the fluorescence resonance energy transfer assay. The substrate was (N-terminal) DABCYL-([…]Gyl)-EDANS. In the uncleaved peptide, the EDANS fluorescence was quenched by the proximal DABCYL moeity. When the peptide was cleaved, the quenching was relieved, and activity was measured as an increase in fluorescence signal.
In the above table, all data is RVP serotype-14 unless otherwise noted in parentheses. […] The data in the column designated kobs/I was measured from progress curves in enzyme start experiments.

Data set [2] deals with T2, Recombinant Rhinovirus 3C protease (RVP) serotype 2 (Human rhinovirus 2, UniProt P04936).
T2 construct: Recombinant Rhinovirus 3C proteases from serotypes 14, 16, 2 or 89; made in house
The experiment in a line: Inhibition of Rhinovirus Protease (fluorescence resonance energy transfer assay), serotype 2. It counts as biochemical, human rhinovirus (HRV). Summed up: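 FRET cleavage of DABCYL-peptide-EDANS substrate (~1 μM) by chromatographically purified recombinant 3C protease (50-100 nM) in 50 mM tris pH 7.6, 1 mM EDTA, 2% DMSO. Fluorescence increase followed; kobs/I from progress curves of enzyme-initiated reactions, fitted by nonlinear regression.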

The test system of the next data set is HRV-14. In words: Antirhinoviral HI-HeLa Cell Culture Assay (Cell Protection Assay, XTT dye reduction). It counts as cell-based, human rhinovirus (HRV) serotype-14. As to conditions: HI-HeLa cells infected with HRV-14, m.o.i. 0.13, two days, XTT, read-out: EC50. An outline of the steps: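 Protection measured via XTT dye reduction (450/650 nm) two days after compound treatment of HI-HeLa cells, mock-infected or infected with cDNA-derived HRV-14 at m.o.i. 0.13. CC50 divided by EC50 gives the therapeutic index.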
For orientation: Tetrazolium dyes change colour on reduction, which living cells bring about.

A further data set relates to CVB-3. In words: Anticoxsackieviral HI-HeLa Cell Culture Assay (XTT dye reduction). It counts as cell-based, Coxsackie strain B-3 (CVB-3). The note with it: HI-HeLa cells infected with CVB-3, m.o.i. 0.08, one day. The method, then: (§1) Specifically, HI-HeLa cells were infected wtih […] at a multiplicity of infection (m.o.i.) of 0.08 or mock-infected with medium only. Infected or mock-infected cells were resuspended at 8×10^5 cells per mL and incubated with appropriate concentrations of compound. One day later, XTT/PMS were added to test plates and the amount of formazan produced was quantified spectrophotometrically at 450/650 nm. […] The therapeutic index (TI) was calculated by dividing the CC50 by the EC50.
(§2) The Coxsackie strain B-3 (CVB-3) was purchased from American Type Culture Collection (ATCC). Virus stocks were propgated and antiviral assays were performed in Hi-HeLa cells (ATCC). Cells were grown in Minimal Essential Medium with 10% fetal bovine serum.

Data set [3] relates to HI-HeLa cells. In words: Cytotoxicity in mock-infected HI-HeLa cells (antirhinoviral assay, XTT). It counts as cell-based.
Data set [4] has as its target T3, Recombinant Rhinovirus 3C protease (RVP) serotype-14 (Human rhinovirus 14, UniProt P03303).
T3 construct: Recombinant Rhinovirus 3C proteases from serotypes 14, 16, 2 or 89; made in house
The experiment in a line: Inhibition of Rhinovirus Protease (fluorescence resonance energy transfer assay), serotype 14. The data set is classed as biochemical, human rhinovirus (HRV).

Data set [5] deals with HI-HeLa cells. The experiment in a line: Cytotoxicity in mock-infected HI-HeLa cells (anticoxsackieviral assay, XTT). The data set is classed as cell-based. As to the method:
as §1, with “The ability of compounds to protect calls against CVB-3 infection was measured by the XTT dye reduction method, which is described in Weislow, O. S., R. Kiser, D. L. Fine, J. Bader, R. H. Shoemaker, and M. R. Boyd, 1989, J. Natl. Cancer Inst. 81:577-586, which is incorporated herein by reference. Specifically,” for “Specifically,”
as §2

Data set [6] deals with Human Rhinovirus-serotype 10 (HRV-10). The experiment in a line: Normal Human Bronchial Epithelial Cell Assay (MTT). The data set is classed as cell-based. As to conditions: normal human bronchial cells, HRV-10 at m.o.i. 10, 3-4 days at 34° C., read-out: ED50 (the source's name). The method, then: Normal human bronchial cells were obtained from cadavers and cultured. The cells were plated at 2×10^4 per well in a […] plate. They were allowed to adhere and grow for 24 hours in 200 μL of serum-free bronchial/tracheal epithelial cell growth medium at 37° C. with 5% CO2. Human Rhinovirus-serotype 10 (HRV-10) was purchased from American Type Culture Collection (ATCC). To start the assay, the supernatant was removed, and HRV-10 at an m.o.i. of 10 (virus particles/cell) was added to each well along with the appropriate amount of compound of formula I or II. The plate was then incubated at 34° C. After 3 hours the supernatant was removed, and 200 μL of media was added along with the same concentration of compound as used in the beginning of the assay. The plates were incubated for 3-4 days at 34° C. To determine the amount of cell growth, an MTT assay (0.5 mgs/mL), as described in Mosmann, T. J. J. Immunol. Methods 1983, 65, 55-63, which is incorporated herein by reference, was performed on the cells, and the plate was read at an optical density of 540 nm. The compounds were tested against control compound Pirodavir, obtained from Janssen Pharmaceuticals. The EC50 was measured as described above for the HI-HeLa Cell Culture Assay.

Data set [7] has as its target T4, Recombinant Rhinovirus 3C protease (RVP) serotype 16 (Human rhinovirus 16, UniProt Q82122).
T4 construct: Recombinant Rhinovirus 3C proteases from serotypes 14, 16, 2 or 89; made in house
The experiment in a line: Inhibition of Rhinovirus Protease (fluorescence resonance energy transfer assay), serotype 16. It counts as biochemical, human rhinovirus (HRV). As to conditions: pH 7.6; RVP serotype 16; progress curves in enzyme start experiments; read-out: kobs/I.

Data set [8] is described as follows: Cytotoxicity in mock-infected HI-HeLa cells (antirhinoviral assay, XTT). It counts as cell-based. As to conditions: human; mock-infected HI-HeLa cells; two days; XTT; read-out: CC50.
Data set [9] can be described thus: Cytotoxicity in mock-infected HI-HeLa cells (anticoxsackieviral assay, XTT). The data set is classed as cell-based. The note with it: human; mock-infected HI-HeLa cells; one day; XTT. As to the method: as §1, with “The ability of compounds to protect calls against CVB-3 infection was measured by the XTT dye reduction method, which is described in Weislow, O. S., R. Kiser, D. L. Fine, J. Bader, R. H. Shoemaker, and M. R. Boyd, 1989, J. Natl. Cancer Inst. 81:577-586, which is incorporated herein by reference. Specifically,” for “Specifically,”
as §2

Setting [10] is: progress curves in enzyme start experiments.
The mark [11] stands for this setting: pH 7.6, progress curves in enzyme start experiments, read-out: kobs/I.

Like-named read-outs stand apart in the source and are kept apart here. Bounds are passed on as bounds.

T3 sequence (P03303 1538-1719): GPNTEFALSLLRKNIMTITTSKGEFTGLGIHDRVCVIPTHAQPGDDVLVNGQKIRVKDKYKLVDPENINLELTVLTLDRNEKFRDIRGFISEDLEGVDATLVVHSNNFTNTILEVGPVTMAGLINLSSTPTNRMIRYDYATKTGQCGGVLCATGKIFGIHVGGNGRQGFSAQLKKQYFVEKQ
T1 sequence (P07210 1522-1704): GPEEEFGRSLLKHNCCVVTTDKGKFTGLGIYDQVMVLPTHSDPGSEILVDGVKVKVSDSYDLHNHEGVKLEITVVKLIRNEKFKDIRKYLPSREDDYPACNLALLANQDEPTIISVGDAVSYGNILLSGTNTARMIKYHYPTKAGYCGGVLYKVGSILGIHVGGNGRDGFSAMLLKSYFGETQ
T2 sequence (P04936 1508-1690): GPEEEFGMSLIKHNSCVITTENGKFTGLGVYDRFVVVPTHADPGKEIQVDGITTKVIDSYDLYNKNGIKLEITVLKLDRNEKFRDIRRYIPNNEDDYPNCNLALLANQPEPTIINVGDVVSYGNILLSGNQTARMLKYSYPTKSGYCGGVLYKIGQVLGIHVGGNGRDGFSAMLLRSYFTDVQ
T4 sequence (Q82122 1511-1693): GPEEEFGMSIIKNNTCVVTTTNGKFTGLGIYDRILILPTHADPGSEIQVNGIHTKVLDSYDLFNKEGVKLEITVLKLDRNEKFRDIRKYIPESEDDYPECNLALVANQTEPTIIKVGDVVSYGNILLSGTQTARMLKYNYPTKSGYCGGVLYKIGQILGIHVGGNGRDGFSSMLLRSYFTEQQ

As for `CCOC(=O)/C=C/[C@H](CCC(N)=O)NC(=O)[C@H](Cc1ccccc1)NC(=O)[C@H](CC(C)C)NC(=O)OCc1ccccc1` [Compound 3, Ethyl-3-(CBZ-L-Leu-L-Phe-L-Gln)-E-Propenoate], the kobs/I is 3,400 M-1 sec-1 in data set [1] (setting [10]); 1,900 M-1 sec-1 in [2] (setting [10]); 37,000 M-1 sec-1 in data set [4] (RVP serotype-14, progress curves in enzyme start experiments). The EC50 with HRV-14 was 0.61 µM; in the data set on CVB-3, 39.8 µM; in data set [6], 0.04 µM. Further, the CC50 in the data set with HI-HeLa cells [3] and in the data set on HI-HeLa cells [5] was > 320 µM each time. The “INHIB (percent inhibition)” value in data set [4] (RVP serotype-14, 0.1 μM compound, 10 minute preincubation with 50 nM RVP) was 81(0.1) percent.
Turning to `CC(=O)/C=C/[C@H](CCC(N)=O)NC(=O)[C@H](Cc1ccccc1)NC(=O)[C@H](CC(C)C)NC(=O)OCc1ccccc1` [Compound 13, 4-(CBZ-L-Leu-L-Phe-L-Gln)-E-3-Butene-2-one], the kinact/KI in data set [1] (setting [11]) came out at 5500 M⁻¹ s⁻¹; in data set [2] (setting [11]), 2400 M⁻¹ s⁻¹; in [7], 9000 M⁻¹ s⁻¹; in data set [4] (pH 7.6, read-out: kobs/I), 54000 M⁻¹ s⁻¹. Also, the EC50 in the data set on HRV-14 (Rhinovirus B, HRV14, 48 h) was 2 µM; in the data set on CVB-3 (24 h), > 100 µM; in data set [6] (Epithelial cell), 0.0004 µM. The CC50 (usually the concentration at which the toxic effect on the cells reaches its halfway point) at 2 days in data set [8] was 58.9 µM. For the same compound, in data set [4], the Ki – broadly, a dissociation constant, usually derived from enzyme kinetics or from competition with a known ligand – turned out to be 6.5 µM. Moreover, in data set [9], the CC50 at 1 day was > 100 µM.
